Experimental data from PubChem BioAssay AID743396 (Broad Institute, 2014).
The source made the active and inactive calls.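 The calls were made as follows: active = fitted curve reaches a 40% rise in fluorescent cells at or below the top valid dose; inactive = opposite-direction effect, or the rest.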

Experiment: compound fluorescence in GFP channel, mTEFS cells – imaging, mTEFS fibroblasts, cherry-pick, artefact control for X-chromosome reactivation project, dose response (AID 743396);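 also: raw share of Hoechst-counted cells scored GFP positive without control normalization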
Conditions: mTEFS fibroblasts autofluorescence, GFP-channel imaging, 3 days; at 19.5 µM (top of the series)
For O=C(Cc1ccccn1)N1CCCCN2[C@H](C1)[C@@H](c1ccc(-c3ccccc3F)cc1)[C@@H]2CO, the % fluorescent cells increase was 0.674% (inactive).

Same assay, conditions: mTEFS fibroblasts autofluorescence, GFP-channel imaging, 3 days; at 19.5 µM (top of the series); cells pretreated with 5-aza-dC
In the case of O=C(COC(=O)c1cc(=O)[nH]c(=O)[nH]1)Nc1cccc(S(=O)(=O)N2CCCCC2)c1, the % fluorescent cells increase is reported as 0% (inactive).
With C(CCCN1CCCCC1)CCN1CCCCC1 the % fluorescent cells increase was 0.016% (inactive).
For Cn1cc(C(=O)N/N=C/C(Br)=C/c2ccccc2)ccc1=O, the % fluorescent cells increase was 0% (inactive).
In the case of Cc1occc1C(=O)N/N=C/C(Br)=C\c1ccccc1, the % fluorescent cells increase is reported as -0.004% (inactive).
In the case of Nc1nc(C2CCOCC2)cs1, the % fluorescent cells increase is reported as 0.017% (inactive).
With O=[N+]([O-])c1ccccc1-c1ccc(C(=S)N2CCN(c3ccccc3)CC2)o1 the % fluorescent cells increase was 0.237% (inactive).
In the case of CN(C)C(=O)CN1CCN(Cc2nc(CC3CC3)no2)CC1, the % fluorescent cells increase is reported as 0.246% (inactive).
With COc1ccc(Cl)cc1C(=O)Nc1ccccc1N1CCCCC1 the % fluorescent cells increase was 2.45% (inactive).
For COc1ccc(NS(=O)(=O)c2ccc(NC(C)=O)cc2)nn1, the % fluorescent cells increase was -0.003% (inactive).
In the case of O=C1C2C3C=CC(CNS(=O)(=O)c4ccccc4[N+](=O)[O-])(O3)C2C(=O)N1c1ccccc1 (stereo not given), the % fluorescent cells increase is reported as 0.044% (inactive).
With COCCN(C(=O)c1ccc2c(c1)C(=O)N(c1ccccc1Cl)C2=O)c1c(N)n(CC(C)C)c(=O)[nH]c1=O the % fluorescent cells increase was 1.41% (inactive).
With C[C@@H]1CN([C@@H](C)CO)C(=O)c2cc(NS(C)(=O)=O)ccc2O[C@@H](C)CCCCO[C@@H]1CN(C)Cc1ccccc1 the % fluorescent cells increase was 0.259% (inactive).
With O=C(Nc1c(F)cccc1F)C(c1ccccc1)c1ccccc1 the % fluorescent cells increase was 0.034% (inactive).
With COc1ccc(CN(C)C[C@H]2OCCCC[C@@H](C)Oc3ccc(NC(=O)Nc4ccc(F)cc4)cc3C(=O)N([C@@H](C)CO)C[C@H]2C)cc1 the % fluorescent cells increase was 0% (inactive).
For COc1ccc(N2CCN(C(CNC(=O)c3ccc4c(c3)OCO4)c3ccco3)CC2)cc1 (stereo not given), the % fluorescent cells increase was 0% (inactive).
For O=C(OCc1cccc(F)c1)c1ccc2c(=O)n3c(nc2c1)CCC3, the % fluorescent cells increase was 0.065% (inactive).
For CC(Sc1nnc(Cc2ccccc2)o1)C(=O)Nc1ccccc1[N+](=O)[O-] (stereo not given), the % fluorescent cells increase was -0.011% (inactive).
For COC(=O)c1c(NC(=O)c2ccccc2)sc2c1CC(C)(C)NC2(C)C, the % fluorescent cells increase was -0.011% (inactive).
In the case of Cc1ccc(/C=C/C(=O)N2CCN(S(=O)(=O)/C=C/c3ccccc3)CC2)o1, the % fluorescent cells increase is reported as 0.017% (inactive).
In the case of COc1ccc2c3c([nH]c2c1)[C@H](CO)N(C(=O)c1cccnc1)CC31CCN(Cc2ccccc2)CC1, the % fluorescent cells increase is reported as 0.458% (inactive).
In the case of CCc1ccc(CCC(=O)Nc2ncc(Cc3ccccc3Cl)s2)o1, the % fluorescent cells increase is reported as -0.007% (inactive).
In the case of CC(C)(C)C1CCNC(=O)CC1 (stereo not given), the % fluorescent cells increase is reported as -0.007% (inactive).
For COc1ccccc1C#Cc1ccc2c(c1)O[C@H](CN(C)Cc1cncnc1)[C@@H](C)CN([C@H](C)CO)S2(=O)=O, the % fluorescent cells increase was 0% (inactive).
With C[C@H]1CN([C@@H](C)CO)C(=O)c2ccccc2-c2ccccc2CO[C@H]1CN(C)C(=O)[C@@H](Cc1ccccc1)N(C)C the % fluorescent cells increase was 0% (inactive).
For Cc1cccn2c(=O)c3cc(C(=O)NCc4ccc(F)cc4)c(=N)n(CCCN4CCOCC4)c3nc12, the % fluorescent cells increase was 0% (inactive).
With O=C(O)c1ccccc1CSc1nc2ccccc2n1Cc1ccccc1C(=O)O the % fluorescent cells increase was 0.253% (inactive).
In the case of O=S(=O)(Nc1cc(Sc2cccc3cccnc23)c(O)c2ccccc12)c1ccccc1, the % fluorescent cells increase is reported as -0.003% (inactive).
For NC(=NC(=O)c1cccc(C(F)(F)F)c1)c1ccc(C(F)(F)F)cn1, the % fluorescent cells increase was 0% (inactive).
In the case of COC(=O)CCN1CCC(c2cc(-c3cccc(C(F)(F)F)c3)n[nH]2)CC1, the % fluorescent cells increase is reported as 0% (inactive).
For COc1ccc(/C=c2/sc3nc(-c4ccccc4)c(-c4ccccc4)n3c2=O)cc1, the % fluorescent cells increase was 0.085% (inactive).
For Nc1nc(Nc2ccc(Cl)cc2)c(NC=O)c(=O)[nH]1, the % fluorescent cells increase was 18.8% (inactive).
With CC1=NN(c2ccc(C)c(C)c2)C(=O)/C1=C\C=C\c1ccc([N+](=O)[O-])o1 the % fluorescent cells increase was -0.007% (inactive).
With CC1C=NC(S(=O)(=O)N2CC[C@@H]3[C@@H](CO)N(C)c4ccc(-c5ccccc5)cc4[C@@H]32)=N1 (stereo not given in full) the % fluorescent cells increase was 0% (inactive).
For CCOC(=O)C1=C(C)NC(=S)NC1/C=C/c1ccccc1 (stereo not given), the % fluorescent cells increase was -0.004% (inactive).
In the case of COc1ccc(CN(C)Cc2nc(Cc3ccccc3Cl)no2)cc1OC, the % fluorescent cells increase is reported as 0.025% (inactive).
For C=Cc1cnc([N+](=O)[O-])n1C, the % fluorescent cells increase was 0.007% (inactive).
With Cn1cc(/C=C/c2cc[n+](C)cc2)c2cc(Cl)ccc21 the % fluorescent cells increase was 6.85% (inactive).
With CN(Cc1cccs1)C(=O)Cc1c[nH]c2ccccc12 the % fluorescent cells increase was 0.005% (inactive).
In the case of Nc1cc2c3c(cccc3c1)C(=O)N(CCN1CCCC1)C2=O, the % fluorescent cells increase is reported as -0.003% (inactive).
With CCOc1ccc(CCN2C(=S)N([C@@H](Cc3ccccc3)CN3CCC[C@@H]3CN3C(=S)NC[C@@H]3CC(C)C)C[C@@H]2Cc2ccccc2)cc1 the % fluorescent cells increase was 0.019% (inactive).
With CCC(C)c1nc2ccsc2c(N2CCOC2=O)c1-c1ccccc1 (stereo not given) the % fluorescent cells increase was -0.011% (inactive).
In the case of O=C(Nc1c(Cl)cccc1Cl)Oc1cccc2cccnc12, the % fluorescent cells increase is reported as 6.89% (inactive).
In the case of Cc1ccccc1NC(=O)CN1C(=O)S/C(=C\c2ccc(-c3cc(C(=O)O)ccc3C)o2)C1=O, the % fluorescent cells increase is reported as 0% (inactive).
In the case of COc1ccc(-n2c(=O)n(Cc3ccccc3)c(=O)c3[nH]cnc32)cc1, the % fluorescent cells increase is reported as 0.008% (inactive).
With Cc1ccc(C(=O)Cn2cncn2)cc1 the % fluorescent cells increase was -0.006% (inactive).
For COC(=O)Nc1ccc(S(=O)(=O)N2CCCC(C(=O)N3CCN(C)CC3)C2)cc1 (stereo not given), the % fluorescent cells increase was 0% (inactive).
With CC(C)(C=O)C1=CC(=O)c2ccccc2C1=O the % fluorescent cells increase was 0% (inactive).
With Cc1ccsc1C1Nc2ccccc2-c2nc3ccccc3n21 (stereo not given) the % fluorescent cells increase was 0.699% (inactive).
In the case of Cc1ccc(NC(=O)c2cc(N3C(=O)C=CC3=O)ccc2N2CCOCC2)cc1Cl, the % fluorescent cells increase is reported as -0.004% (inactive).
With C/C(=N\NC(=O)CC1N=C(Cc2ccccc2)NNC1=O)c1ccc(Br)cc1 (stereo not given) the % fluorescent cells increase was 0.037% (inactive).
In the case of COc1ccccc1CN1CC[C@H]2[C@H](CO)Nc3ccc(C#Cc4ccccc4)cc3[C@H]21, the % fluorescent cells increase is reported as 0% (inactive).
In the case of O=C(Nc1ccc(F)cc1)N1CC(=O)N2[C@H](CO)[C@H](c3ccc(C#Cc4ccc(F)cc4)cc3)[C@@H]2C1, the % fluorescent cells increase is reported as -0.166% (inactive).
In the case of COc1cc(/C=C/c2ccc3cccc(O)c3n2)cc(OC)c1OC, the % fluorescent cells increase is reported as 0% (inactive).
With CCOC(=O)CSc1nnc(CCCCCN2C(=O)c3cccc4cccc(c34)C2=O)o1 the % fluorescent cells increase was 0.071% (inactive).
In the case of COc1ccccc1-c1cc(C(=O)N2CCCc3ccccc32)no1, the % fluorescent cells increase is reported as 0.006% (inactive).
For CN1CCN(S(=O)(=O)c2ccc(C#N)cc2)C(c2ccccc2)C1 (stereo not given), the % fluorescent cells increase was 0% (inactive).
With COc1cccc(NC(=O)N(C)C[C@@H]2Oc3cc(Br)ccc3S(=O)(=O)N([C@@H](C)CO)C[C@H]2C)c1 the % fluorescent cells increase was 0.017% (inactive).
For O=C(C[C@H]1CC[C@H]2[C@@H](COC[C@@H](O)CN2C(=O)Nc2ccccc2)O1)NCCc1ccncc1, the % fluorescent cells increase was 0.044% (inactive).
In the case of CN(C)S(=O)(=O)c1cccc(C(=O)NCC2(N3CCOCC3)CCCCC2)c1, the % fluorescent cells increase is reported as 0.019% (inactive).
